{"source": "patent US20060115804A1", "about": "“Method of studying living cells” (priority 2002, published 2006)", "tested_on": "Primary human osteoblasts", "assay": "Formation and mineralisation of bone nodules (962 cm^-1 hydroxyapatite Raman peak) by osteoblasts cultured on 45S5 Bioglass", "format": "cell-based", "settings": "culture medium supplemented with BGP; cells on 45S5 Bioglass substrates", "procedure": "Primary human osteoblasts were cultured on 45S5 Bioglass® substrates in order to induce formation of new bone. The formation of new bone can be detected with high sensitivity using Raman spectroscopy with 785 nm lasers by detecting the 962 cm^−1 Raman peak of hydroxyapatite (the mineral phase of bone). […] Only peaks corresponding to intrinsic cellular components were measured."}
{"smiles": "O=P(O)(O)OC(CO)CO", "note": "[beta-glycerophosphate (BGP), beta-glycerophosphate]", "values": [{"measurement": "Hydroxyapatite Raman peak (formation of bone nodules)", "value": "a strong peak corresponding to hydroxyapatite was detected"}]}
